From patent publication EP0100569A1, “Spasmolytically active (+)S-enantiomer of secoverine” (DUPHAR INT[…] B.V, priority 1982, dated 1984)
Counter-ions that a name gives are not always drawn.

Legend:
guinea pig ileum = assay: Peripheral spasmolytic activity in vitro, 4-point analysis, carbachol as spasmogen; format: cell-based
Experimental: These tests were carried out according to the normal 4--point analysis in which the termina-1 guinea pig ileum was used as isolated organ and carbachol was used as a cholinergic spasmogen.
(§1) The required organs were isolated from killed guinea pigs and the contents and adherent tissues were carefully removed from suitable pieces. The said organs were then suspended in a bath containing 50 ml of Tyrode solution through which oxygen was led. The spasmogenically active substance (carbachol) was added to the bath inter- mittem tly and, after a constant response to the spasmogen had been obtained, the spasmolytic activity of the substances to be tested was measured by adding them to the bath 30 seconds prior to the spasmogen.
The relative activity of the (+)-enantiomer of secoverine as compared with the racemate was calculated fron, a series of 4-point assays: the (+)-enantiomer of secoverine was 1.86 times as active as the racemate.

rat jejunum = assay: Peripheral spasmolytic activity in vitro, furtrethonium as spasmogen; format: cell-based
Experimental: as §1
Similar results were obtained by using rat jejunum as an organ and using furtrethonium as a spasmogenically active substance: the (+)-enantiomer of secoverine now was 2.10 times as active as the racemate.

guinea pigs = assay: Anticholinergic activity in vivo, carbachol as spasmogen; conditions: i.v.
Experimental: These tests were carried out according to the method by J.M.A. Zwagemakers, Arzneimittelforschung, 30 (II), (1980), 1517-1526 in which carbachol was used as a spasmogenically active substance. After a constant response to the spasmogen had been obtained, the compound to be tested was administered intravenously (i.v.) to guinea pigs 3 minutes prior to the next quantity of spasmogenically active substance. The activity of the compounds was determined for 52 minutes. Contractions obtained after preceding administration of the substance to be tested were expressed as percentages of the average of two control values and were plotted graphically. The average percentage of inhibition during the period of 52 minutes was calculated from the area under the curve, and the maximum inhibition and the duration of the spasmolytic activity were estimated by means of the time-contraction curve. The spasmolytic activity is considered to be terminated when two successive contractions show less than 20% inhibition.

vas deferens of the rat = assay: Potentiation of the activity of noradrenaline on the vas deferens in vitro; format: cell-based; conditions: for EC (2-fold shift): Rattus norvegicus, negative logarithm of the molar concentration giving a shift to the left of a factor 2 of the noradrenaline curve, read-out: pP2-value (converted); for noradrenaline potentiation: rat vas deferens in vitro
Text: The test used is a modification of the method as described by Ursillo and Jacobsen, J. Pharmacol. Ex. Ther. 148, (1965), 247.
The smallest dose which gave a potentiating effect was […], and the potentiating activity was maximum in a quantity of 5 x 10 7M. Higher dosages caused a non--specific decrease of the maximum of the noradrenaline curve.
For quantifying the effect at the 50% point of the contraction curve (maximum of the control noradrenaline curve = 100%), the shift of the curve obtained with the compound to be tested (expressed as DR) was measured. The pP2-values were calculated in the same manner as the pA2-values mentioned sub b), according to the equation
^pP2 ^= -log [secoverine] + log (DR-1).

cornea of male mice = assay: Local anaesthetic activity on the cornea; format: in vivo; conditions: concentration of solution giving local anaesthesia in 50% of the animals, 10 per dose, determined graphically
Experimental: The anaesthetic activity on the cornea of male mice (18-22 g), 10 animals per dose, was determined according to the method by Weidmann and Petersen, J. Pharmacol. Exp. Ther., 115 (1955), 246. The concentration of the solution of the compounds which gave local anaesthesia in 50% of the animals was determined graphically (EC50--value): […]

Structure (SMILES)	relative activity as compared with the racemate (guinea pig ileum; guinea pig ileum, carbachol, series of 4-point assays)	anticholinergic spasmolytic activity in peripheral organs relative to the racemate (guinea pig ileum; summary statement)	relative activity as compared with the racemate (rat jejunum)	activity in vivo relative to the racemate (guinea pigs)	EC (2-fold shift) (vas deferens of the rat)	noradrenaline potentiation (vas deferens of the rat)	EC50-value (% w/vol) (cornea of male mice)
CCN(CCCC(=O)C1CCCCC1)[C@@H](C)Cc1ccc(OC)cc1 [(+)-enantiomer of secoverine, (+)S-1-cyclohexyl-4-[ethyl(p-methoxy-α-methylphenethyl)--amino]-l-butanone hydrochloride]	1.86 times	approximately twice as strong	2.10 times	about twice as active	0.263 µM	significant noradrenaline potentiation	0.20 % w/vol
CCN(CCCC(=O)C1CCCCC1)[C@H](C)Cc1ccc(OC)cc1 [(-)-enantiomer of secoverine]					0.17 µM	significant noradrenaline potentiation	0.08 % w/vol
CCN(CCCC(=O)C1CCCCC1)C(C)Cc1ccc(OC)cc1 (racemic) [racemate]					0.309 µM	significant noradrenaline potentiation	0.13 % w/vol
